Data on 7 compounds can be found in paper PMC3685428 (ACS medicinal chemistry letters, 2012).

One data set has as its system P. falciparum 3D7 strain. The experiment in a line: Proliferation of erythrocyte-stage P. falciparum, 3D7 strain. It is filed as cell-based. The settings on record: Plasmodium falciparum; for IC50: 3D7, Erythrocyte, read-out: IC50 against P. falciparum proliferation, 3D7 strain.
The subject of the next data set is P. falciparum Dd2 strain. In words: Proliferation of erythrocyte-stage P. falciparum, Dd2 strain. It is filed as cell-based. The settings on record: Plasmodium falciparum; for IC50: DD2, Erythrocyte, read-out: IC50 against P. falciparum proliferation, Dd2 strain.
Data set [1] concerns the target T1, recombinant P. falciparum DXR (PfDXR) (Plasmodium falciparum, UniProt O96693).
T1 sequence (O96693 73-488): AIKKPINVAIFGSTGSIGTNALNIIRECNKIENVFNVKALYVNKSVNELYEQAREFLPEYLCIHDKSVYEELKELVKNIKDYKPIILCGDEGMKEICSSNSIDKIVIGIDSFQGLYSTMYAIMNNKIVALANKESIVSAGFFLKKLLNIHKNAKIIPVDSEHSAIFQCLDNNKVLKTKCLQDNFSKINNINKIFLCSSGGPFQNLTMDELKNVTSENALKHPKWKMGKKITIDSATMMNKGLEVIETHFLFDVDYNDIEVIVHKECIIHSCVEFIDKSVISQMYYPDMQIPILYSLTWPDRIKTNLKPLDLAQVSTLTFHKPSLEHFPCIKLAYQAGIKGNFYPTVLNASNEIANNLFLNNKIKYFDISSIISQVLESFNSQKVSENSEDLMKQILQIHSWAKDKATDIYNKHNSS
The experiment in a line: Enzyme inhibition of recombinant P. falciparum DXR. It is filed as biochemical. Conditions: relative to compound 7.

Another data set deals with P. falciparum malaria. The settings on record: clinical trials, in combination with clindamycin ref 7, 8; cited from earlier work.
The conditions of data set [2]: background statement, cited from earlier work.

Each structure is given as a SMILES string.

Take `O=CN(O)CCC(c1cccnc1)P(=O)(O)O` (centres unmarked) [4m]: the IC50 with P. falciparum 3D7 strain was 340 nM; in the data set on P. falciparum Dd2 strain, 180 nM.
Broadly, the EC50 is the concentration needed to bring the measured effect to its halfway point. As to `CC(=O)N(O)CCC(c1ccncc1)P(=O)(O)O` (centres unmarked) [5p], the “Fold more inhibitory potency than compound 7 against PfDXR” value in data set [1] is given as ~ 6 ×. For the same compound, the IC50 in the data set with P. falciparum 3D7 strain stood at 630 nM; in the data set with P. falciparum Dd2 strain, 460 nM. Further, the EC50 with P. falciparum 3D7 strain (3D7, read-out: EC50 against P. falciparum 3D7) came to 310 nM.
In the case of `O=CN(O)CCC(c1ccncc1)P(=O)(O)O` (centres unmarked) [4p], the IC50 stood at 180 nM in the data set on P. falciparum 3D7 strain and 170 nM in the data set on P. falciparum Dd2 strain.
Consider `CCN(CC)CCCC(C)Nc1ccnc2cc(Cl)ccc12` (centres unmarked) [CQ, chloroquine, reference compound], for which the values for the IC50 in the data set on P. falciparum 3D7 strain and with P. falciparum Dd2 strain were 21 nM and 120 nM, respectively.
Turning to `O=CN(O)CCCP(=O)(O)O` [compound 1, Fosmidomycin], in the data set with P. falciparum malaria, the “Clinical efficacy against P. falciparum malaria” value is listed as “effective against P. falciparum malaria”. Besides, the Oral availability result in data set [2] was “poor”. Further, in data set [2] (plasma), the “Half life in plasma” value is given as ~ 1 h. Moreover, the IC50 in the data set with P. falciparum 3D7 strain was 1170 nM; in the data set on P. falciparum Dd2 strain it was 440 nM.
With `CC(=O)N(O)CCC(c1ccccc1)P(=O)(O)O` (centres unmarked) [compound 7], the IC50 in the data set on P. falciparum 3D7 strain turned out to be 3500 nM; in the data set on P. falciparum Dd2 strain it was 1700 nM.
For the compound `CC(=O)N(O)CCC(c1cccnc1)P(=O)(O)O` (centres unmarked) [5m], the IC50 worked out at 440 nM in the data set on P. falciparum 3D7 strain and 310 nM with P. falciparum Dd2 strain. In addition, in the data set with P. falciparum Dd2 strain (DD2, read-out: EC50 against P. falciparum Dd2), the EC50 worked out at 630 nM.
